Experimental data taken from ChEMBL document CHEMBL4190175 (Medchemcomm, 2016).
Calls of active or inactive are those of the source. No cut-off for these calls is given here.

How the values were obtained:
[1] = Stability in human liver microsomes assessed as metabolic turnover number at 10 uM after 15 mins by LC-MS/UV analysis; format: ADME, microsome; conditions: read-out: Stability
[2] = target: T1, Transient receptor potential cation channel subfamily A member 1 (Homo sapiens, UniProt O75762); test: Antagonist activity at full length human TRPA1 expressed in 293-T-REx cells by FLIPR assay
T1 sequence (O75762 whole entry): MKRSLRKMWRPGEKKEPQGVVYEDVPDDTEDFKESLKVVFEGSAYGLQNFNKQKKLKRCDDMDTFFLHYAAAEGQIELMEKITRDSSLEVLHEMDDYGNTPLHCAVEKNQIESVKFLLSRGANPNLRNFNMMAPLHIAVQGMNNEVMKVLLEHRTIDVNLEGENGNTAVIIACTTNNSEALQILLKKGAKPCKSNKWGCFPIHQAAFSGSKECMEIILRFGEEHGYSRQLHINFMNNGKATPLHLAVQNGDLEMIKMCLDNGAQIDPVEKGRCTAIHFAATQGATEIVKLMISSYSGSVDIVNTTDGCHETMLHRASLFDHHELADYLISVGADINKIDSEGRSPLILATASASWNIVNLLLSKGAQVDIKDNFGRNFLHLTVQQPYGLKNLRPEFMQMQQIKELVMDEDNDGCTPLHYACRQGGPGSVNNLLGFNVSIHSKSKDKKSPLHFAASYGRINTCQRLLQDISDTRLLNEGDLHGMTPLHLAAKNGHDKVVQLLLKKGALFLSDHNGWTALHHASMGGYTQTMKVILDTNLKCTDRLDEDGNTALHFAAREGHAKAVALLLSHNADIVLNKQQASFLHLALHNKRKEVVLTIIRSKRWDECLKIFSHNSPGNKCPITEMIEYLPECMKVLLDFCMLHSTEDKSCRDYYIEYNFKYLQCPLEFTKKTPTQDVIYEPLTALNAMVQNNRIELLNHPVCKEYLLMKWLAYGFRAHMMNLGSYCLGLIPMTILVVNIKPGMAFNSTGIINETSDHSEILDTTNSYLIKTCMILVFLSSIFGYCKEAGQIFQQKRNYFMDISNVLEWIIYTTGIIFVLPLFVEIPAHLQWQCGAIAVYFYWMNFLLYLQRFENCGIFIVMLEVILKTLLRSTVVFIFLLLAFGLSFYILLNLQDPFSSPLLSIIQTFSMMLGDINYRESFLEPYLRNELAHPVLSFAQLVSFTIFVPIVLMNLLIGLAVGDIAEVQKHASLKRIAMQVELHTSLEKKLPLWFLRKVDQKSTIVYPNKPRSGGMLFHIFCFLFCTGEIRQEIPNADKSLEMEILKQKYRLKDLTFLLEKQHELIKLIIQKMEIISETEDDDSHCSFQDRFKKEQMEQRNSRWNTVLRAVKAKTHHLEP

[3] = target: T1, Transient receptor potential cation channel subfamily A member 1; test: Antagonist activity at full length human TRPA1 at holding potential of 15 mV measured after 1 min by PatchXpress electrophysiology assay
[4] = Passive permeability of the compound in RRCK cells; format: ADME, cell-based, Canis lupus familiaris, MDCKII-LE; conditions: dog, MDCK; read-out: permeability
[5] = system: Rattus norvegicus; test: Suppression of cinnamaldehyde-induced flare response in Sprague-Dawley rat skin at 50 to 100 mg/kg administered topically measured after 30 to 90 mins by recording blood flow for 30 mins by laser Doppler sonography method; format: functional, organism-based
[6] = system: Rattus norvegicus; test: Suppression of cinnamaldehyde-induced flare response in Sprague-Dawley rat skin at 50 to 100 mg/kg administered topically preincubated for 30 to 90 mins measured by recording blood flow for 30 mins by laser Doppler sonography method; format: functional, organism-based
[7] = target: Transient receptor potential cation channel subfamily A member 1 (Rattus norvegicus, UniProt Q6RI86); test: Antagonist activity at rat TRPA1 by electrophysiology assay
Chain of Transient receptor potential cation channel subfamily A member 1 (Rattus norvegicus, UniProt Q6RI86) (Q6RI86 whole entry): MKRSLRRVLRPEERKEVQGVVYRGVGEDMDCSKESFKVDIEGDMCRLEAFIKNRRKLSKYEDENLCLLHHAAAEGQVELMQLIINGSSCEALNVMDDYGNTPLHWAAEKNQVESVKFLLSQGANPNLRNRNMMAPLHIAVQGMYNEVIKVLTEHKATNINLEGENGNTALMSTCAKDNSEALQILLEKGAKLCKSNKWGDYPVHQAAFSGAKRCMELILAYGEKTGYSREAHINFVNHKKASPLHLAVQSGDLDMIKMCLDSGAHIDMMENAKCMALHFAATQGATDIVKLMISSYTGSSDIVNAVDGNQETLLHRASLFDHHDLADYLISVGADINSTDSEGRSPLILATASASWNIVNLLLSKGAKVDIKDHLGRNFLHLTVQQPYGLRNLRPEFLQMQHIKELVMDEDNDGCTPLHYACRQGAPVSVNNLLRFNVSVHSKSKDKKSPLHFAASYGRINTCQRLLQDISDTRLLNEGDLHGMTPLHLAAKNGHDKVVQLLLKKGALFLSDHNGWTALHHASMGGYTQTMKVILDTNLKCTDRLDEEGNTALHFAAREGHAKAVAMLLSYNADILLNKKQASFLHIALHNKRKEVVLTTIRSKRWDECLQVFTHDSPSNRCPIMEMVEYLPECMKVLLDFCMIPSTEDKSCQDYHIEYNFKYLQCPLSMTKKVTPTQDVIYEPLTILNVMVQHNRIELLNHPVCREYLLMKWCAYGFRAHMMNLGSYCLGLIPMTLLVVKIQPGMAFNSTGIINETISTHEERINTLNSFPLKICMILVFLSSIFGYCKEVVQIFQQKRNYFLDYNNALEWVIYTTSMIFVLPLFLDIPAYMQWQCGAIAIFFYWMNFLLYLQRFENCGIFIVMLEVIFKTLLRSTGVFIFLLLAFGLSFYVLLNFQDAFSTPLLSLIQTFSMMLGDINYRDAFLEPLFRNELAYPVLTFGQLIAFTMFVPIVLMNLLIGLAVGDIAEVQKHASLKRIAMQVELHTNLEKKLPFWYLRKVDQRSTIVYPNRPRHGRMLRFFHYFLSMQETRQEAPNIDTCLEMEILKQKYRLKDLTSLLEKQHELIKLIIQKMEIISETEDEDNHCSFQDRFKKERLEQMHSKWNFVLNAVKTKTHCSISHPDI

[8] = Drug uptake in Sprague-Dawley rat skin epidermal layer at 0.68 mg applied topically measured after 24 hrs; format: ADME, tissue-based, Skin epidermis; conditions: topical or ocular, read-out: Drug uptake
[9] = Drug uptake in Sprague-Dawley rat skin dermal layer at 0.68 mg applied topically measured after 24 hrs; format: ADME, tissue-based, Dermis; conditions: topical or ocular, read-out: Drug uptake
[10] = Lipophilicity, log D of the compound; format: physicochemical; conditions: octanol/water
[11] = Ratio of permeability from basolateral to apical side over apical to basolateral side in RRCK cells expressing MDR1; format: ADME, cell-based, Canis lupus familiaris; conditions: dog, mdckii-le

| microsomal CLint at 10 µM [1] [µL/min/mg] | IC50 [2] [nM] | IC50 [3] [nM] | Papp [4] [×10⁻⁶ cm/s] | Compound | other results |
| --- | --- | --- | --- | --- | --- |
| > 320 | – | > 3000 | 3 | CN1CCN(C(CNC(=O)C2(c3ccc(Cl)cc3)CCCC2)Cc2ccccc2)CC1 (racemic) | – |
| – | 71 | – | – | CCCC(C)(C)C(=O)NC[C@@H](Cc1ccccc1)N1CCC(O)(C(F)(F)F)CC1 | – |
| 284 | – | 91 | 31 | CC(C)(C(=O)NCC(Cc1ccccc1)N1CCC(O)(C(F)(F)F)CC1)C(F)(F)F (racemic) | – |
| > 320 | – | 1900 | 3 | O=C(NCC(CC1CCOCC1)N1CCC(O)(C(F)(F)F)CC1)C1(c2ccc(Cl)cc2)CCCC1 (racemic) | – |
| > 320 | – | > 1000 | < 1 | CC(C)C(CNC(=O)C1(c2ccc(Cl)cc2)CCCC1)N1CCC(O)(C(F)(F)F)CC1 (racemic) | – |
| > 320 | – | 474 | – | O=C(NC[C@H](Cc1ccccc1)N1CCC(O)(C(F)(F)F)CC1)C1(c2ccc(Cl)cc2)CC1 | – |
| 238 | – | 673 | 6 | O=C(NCC(Cc1ccccc1)N1CCC(C(F)(F)F)CC1)C1(c2ccc(F)cc2)CCCC1 (racemic) | – |
| > 320 | – | 851 | – | CC1(C(=O)NCC(Cc2ccccc2)N2CCC(O)(C(F)(F)F)CC2)CCCCC1 (racemic) | – |
| – | – | 309 | – | O=C(NCC(Cc1ccccc1)N1CCC(O)(C(F)(F)F)C1)C1(c2ccc(F)cc2)CCC1 (racemic) | – |
| – | – | 10 | – | O[C@]12CCCC[C@@H]1CCC[C@H]2Nc1ccc(F)cc1 | IC50 [7]: 8 nM; concentration at 24 h [8]: 86000 ng/g; concentration at 24 h [9]: 232000 ng/g |
| 42 | – | 26700 | 1 | CN1CCC(CC(CNC(=O)C2(c3ccc(Cl)cc3)CCCC2)N2CCC(O)(C(F)(F)F)CC2)CC1 (racemic) | – |
| 146 | > 10000 | – | – | Cc1nc(C(=O)NCC(Cc2ccccc2)N2CCC(O)(C(F)(F)F)CC2)c(C(F)(F)F)o1 (racemic) | – |
| > 320 | – | 101 | – | CC(C)(C)[C@H]1CC[C@H](C(=O)NCC(Cc2ccccc2)N2CCC(O)(C(F)(F)F)CC2)CC1 (mixture of isomers) | – |
| > 320 | – | 1900 | 1 | O=C(NC[C@H](Cc1ccccc1)N1CCC(O)(C(F)(F)F)CC1)C1(c2ccc(Cl)cc2)CCCC1 | logD [10]: 4.7; Ratio [11]: 1 |

The remaining lines, values behind:

| Compound | microsomal CLint at 10 µM [1] [µL/min/mg] | IC50 [2] [nM] | IC50 [3] [nM] | Papp [4] [×10⁻⁶ cm/s] | other results |
| --- | --- | --- | --- | --- | --- |
| O=C(NCC(Cc1ccc(F)cc1)N1CCC2(CC1)COC2)C1(c2ccc(F)cc2)CCCC1 (racemic) | > 320 | > 10000 | – | – | – |
| O=C(NC[C@@H](Cc1ccccc1)N1CCC(O)(C(F)(F)F)CC1)C1(c2ccc(Cl)cc2)CC1 | > 320 | – | 53 | – | – |
| O=C(NCC(Cc1ccccc1)N1CCC(O)(C(F)(F)F)CC1)C1(C(F)(F)F)CC1 (racemic) | 149 | – | 1000 | – | – |
| O=C(NCC(Cc1ccccc1)N1CCC(O)(C(F)(F)F)CC1)c1cc(C(F)(F)F)ccn1 (racemic) | 285 | – | 83 | 8 | – |
| O=C(NCC(Cc1ccc(F)cc1)N1CCC(C(F)(F)F)C1)C1(c2ccc(F)cc2)CCCC1 (racemic) | – | – | 1450 | – | – |
| O=C(NCC(Cc1ccc(F)cc1)N1CC2CCC1C2)C1(c2ccc(F)cc2)CC1 (racemic) | > 320 | > 10000 | – | – | – |
| O=C(NCC(Cc1ccccc1)N1CCC(O)(C(F)(F)F)CC1)C1(c2ccc(Cl)cc2)CC1 (racemic) | > 320 | – | 73 | 2 | – |
| O=C(NCC(Cc1ccc(F)cc1)N1CCC2(C1)CC2(F)F)C1(c2ccc(F)cc2)CCCC1 (racemic) | > 320 | > 10000 | – | 0.3 | – |
| O=C(NCC(Cc1ccc(F)cc1)N1CCC(O)C1)C1(c2ccc(F)cc2)CCCC1 (racemic) | 170 | > 10000 | – | – | – |
| O=C(NCC(Cc1ccccc1)N1CCC(O)(C(F)(F)F)CC1)C1(c2ccc(Cl)cc2)CCCC1 (racemic) | > 320 | 374 | 17 | 1 | Activity [5]: Active; Activity [6]: Active |
| CC(C)(C)c1ccc(CC(=O)NCC(Cc2ccccc2)N2CCC(O)(C(F)(F)F)CC2)cc1 (racemic) | > 320 | > 10000 | – | – | – |
| O=C(NCC(Cc1ccc(F)cc1)N1C2CCC1CC(O)(C(F)(F)F)C2)C1(c2ccc(F)cc2)CCCC1 (racemic) | > 320 | – | 825 | – | – |
| O=C1CCC2(CCN(C(CNC(=O)C3(c4ccc(F)cc4)CC3)Cc3ccc(F)cc3)CC2)N1 (racemic) | 168 | > 10000 | – | – | – |
| CC(C)c1csc(C(=O)NCC(Cc2ccccc2)N2CCC(O)(C(F)(F)F)CC2)n1 (racemic) | > 320 | – | 159 | – | – |
| O=C(NCC(Cc1ccccc1)N1CCN(c2ccccn2)CC1)C1(c2ccc(Cl)cc2)CCCC1 (racemic) | 312 | – | > 1000 | < 1 | – |
| O=C(NCC(c1ccccc1)N1CCC(O)(C(F)(F)F)CC1)C1(c2ccc(Cl)cc2)CC1 (racemic) | > 320 | – | > 3000 | 4 | – |
| CCCC(C)(C)C(=O)NC[C@H](Cc1ccccc1)N1CCC(O)(C(F)(F)F)CC1 | – | 1700 | – | – | – |
| CN(CC(Cc1ccccc1)N1CCC(O)(C(F)(F)F)CC1)C(=O)C1(c2ccc(Cl)cc2)CCCC1 (racemic) | > 320 | – | > 1000 | – | – |
